Measurements from PMC6225228, “Design, Synthesis and Evaluation of N-pyrazinylbenzamides as Potential Antimycobacterial Agents” (Molecules : A Journal of Synthetic Chemistry and Natural …, 2018).
≈ marks a conversion by molar mass, not a printed value. Where two headings read alike, the source gives them in different places.

What was measured:
[1] = test system: Mycobacterium tuberculosis H37Rv CNCTC My 331/88 (ATCC 27294); test: Antimycobacterial microdilution MABA, M. tuberculosis; type: cell-based; conditions: for MIC: Mycobacterium tuberculosis, read-out: Mtb H37Rv ATCC 27294 MIC, Middlebrook 7H9 with OADC growth supplement, pH = 6.6, MABA
[2] = test system: M. kansasii CNCTC My 235/80 (ATCC 12478); test: Antimycobacterial microdilution MABA, M. kansasii; type: cell-based, Mycobacterium kansasii; conditions: Mycobacterium kansasii, ATCC12478, pH 6.6, read-out: M. kans. ATCC 12478 MIC, Middlebrook 7H9 with OADC, pH 6.6, MABA
[3] = test system: M. avium ssp. avium CNCTC My 80/72 (ATCC 15769); test: Antimycobacterial microdilution MABA, M. avium; type: cell-based, Mycobacterium avium; conditions: Mycobacterium avium, ATCC15769, pH 6.6, read-out: M. avium ATCC 15769 MIC
[4] = test system: Mycobacterium smegmatis CCM 4622 (ATCC 607); test: Antimycobacterial microdilution, M. smegmatis; type: cell-based; conditions: Mycolicibacterium smegmatis, read-out: M. smeg. ATCC 607 MIC
[5] = test system: Staphylococcus aureus CCM 4516/08; test: Antibacterial microdilution broth, SA; type: cell-based; conditions: Staphylococcus aureus
[6] = test system: Staphylococcus aureus H 5996/08 methicillin resistant; test: microbe, parasite or virus in culture; type: cell-based; conditions: Staphylococcus aureus, MRSA, read-out: MIC MRSA
[7] = test system: Staphylococcus epidermidis H 6966/08; test: Antibacterial microdilution broth, SE; type: cell-based; conditions: Staphylococcus epidermidis, read-out: MIC SE
[8] = test system: Enterococcus sp. J 14365/08; test: Antibacterial microdilution broth, EF; type: cell-based; conditions: Enterococcus, read-out: MIC EF
[9] = test system: Escherichia coli CCM 4517; test: Antibacterial microdilution broth, EC; type: cell-based; conditions: Escherichia coli, read-out: MIC EC
[10] = test system: Pseudomonas aeruginosa CCM 1961; test: Antibacterial microdilution broth, PA; type: cell-based; conditions: Pseudomonas aeruginosa, read-out: MIC PA
[11] = test system: Candida albicans ATCC 44859; test: Antifungal microdilution broth, CA; type: cell-based; conditions: Candida albicans, read-out: MIC CA
Candida tropicalis 156 = test: Antifungal microdilution broth, CT; type: cell-based; conditions: read-out: MIC CT
Candida krusei E28 = test: Antifungal microdilution broth, CK; type: cell-based; conditions: Pichia kudriavzevii, read-out: MIC CK
Candida glabrata 20/I = test: Antifungal microdilution broth, CG; type: cell-based; conditions: Nakaseomyces glabratus, 20/I, read-out: MIC CG
Trichosporon asahii 1188 = test: Antifungal microdilution broth, TA; type: cell-based; conditions: read-out: MIC TA
[12] = test system: Aspergillus fumigatus 231; test: Antifungal microdilution broth, AF; type: cell-based; conditions: read-out: MIC AF
[13] = test system: Lichtheimia corymbifera 272; test: Antifungal microdilution broth, LC; type: cell-based; conditions: read-out: MIC LC
[14] = test system: Trichophyton interdigitale 445; test: Antifungal microdilution broth, TI; type: cell-based; conditions: read-out: MIC TI
[15] = CCM4516, 24 h, read-out: MIC SA, 24 h
[16] = CCM4516, 48 h, read-out: MIC SA, 48 h
[17] = CCM4516, read-out: MIC against S. aureus, time not stated
[18] = Trichosporon asahii, 1188, 24 h
[19] = Trichosporon asahii, 1188, 48 h
[20] = Aspergillus fumigatus, 231, 24 h
[21] = Aspergillus fumigatus, 231, 48 h
[22] = Lichtheimia corymbifera, 272, 24 h
[23] = Lichtheimia corymbifera, 272, 48 h
[24] = Trichophyton interdigitale, 445, 72 h
[25] = Trichophyton interdigitale, 445, 120 h

Row | SMILES | MIC [1] [µg/mL] | MIC [2] [µg/mL] | MIC [3] [µg/mL] | MIC [4] [µg/mL] | MIC [5, 15] [µM] | MIC [5, 16] [µM] | MIC ([6]; 24 h) [µM] | MIC ([6]; 48 h) [µM] | MIC ([7]; H6966/08, 24 h) [µM] | MIC ([7]; H6966/08, 48 h) [µM] | MIC ([8]; SP.J14365/08, 24 h) [µM] | MIC ([8]; SP.J14365/08, 48 h) [µM] | MIC ([9]; CCM4517, 24 h) [µM] | MIC ([9]; CCM4517, 48 h) [µM] | MIC ([10]; CCM1961, 72 h) [µM] | MIC ([10]; CCM1961, 120 h) [µM] | MIC ([11]; ATCC44859, 24 h) [µM] | MIC ([11]; ATCC44859, 48 h) [µM] | MIC (Candida tropicalis 156; Candida tropicalis, 156, 24 h) [µM] | MIC (Candida tropicalis 156; Candida tropicalis, 156, 48 h) [µM] | other results
1 | COc1ccc(C(=O)Nc2cnc(Cl)cn2)cc1 [Compound 2g] | > 100 | > 100 | > 100 | ≥ 500 | > 125 | > 125 | > 125 | > 125 | > 125 | > 125 | > 125 | > 125 | > 125 | > 125 | > 125 | > 125 | > 125 | > 125 | > 125 | > 125 | MIC [5, 17]: > 125 µM; MIC (Candida krusei E28; E28, 24 h): > 125 µM; MIC (Candida krusei E28; E28, 48 h): > 125 µM; MIC (Candida glabrata 20/I; 24 h): > 125 µM; MIC (Candida glabrata 20/I; 48 h): > 125 µM; MIC (Trichosporon asahii 1188; [18]): > 125 µM; MIC (Trichosporon asahii 1188; [19]): > 125 µM; MIC [12, 20]: > 125 µM; MIC [12, 21]: > 125 µM; MIC [13, 22]: > 125 µM; MIC [13, 23]: > 125 µM; MIC [14, 24]: > 125 µM; MIC [14, 25]: > 125 µM; melting point: 177.8 to 179 °C
2 | O=C(Nc1cnc(Cl)cn1)c1cccc(Cl)c1 [Compound 2k] | > 100 | > 100 | > 100 | ≥ 500 | > 125 | > 125 | > 125 | > 125 | > 125 | > 125 | > 125 | > 125 | > 125 | > 125 | > 125 | > 125 | > 125 | > 125 | > 125 | > 125 | Mtb H37Rv ATCC 27294 MIC ([1]; Middlebrook 7H9 with OADC growth supplement, pH = 6.6, MABA): >100 µg/mL; MIC [5, 17]: > 125 µM; MIC (Candida krusei E28; E28, 24 h): > 125 µM; MIC (Candida krusei E28; E28, 48 h): > 125 µM; MIC (Candida glabrata 20/I; 24 h): > 125 µM; MIC (Candida glabrata 20/I; 48 h): > 125 µM; MIC (Trichosporon asahii 1188; [18]): > 125 µM; MIC (Trichosporon asahii 1188; [19]): > 125 µM; MIC [12, 20]: > 125 µM; MIC [12, 21]: > 125 µM; MIC [13, 22]: > 125 µM; MIC [13, 23]: > 125 µM; MIC [14, 24]: > 125 µM; MIC [14, 25]: > 125 µM; melting point: 150.7 to 151.9 °C
3 | O=C(Nc1cnccn1)c1ccccc1O [Compound 1b] | > 100 | > 100 | > 100 | ≥ 500 | > 500 | > 500 | > 500 | > 500 | > 500 | > 500 | > 500 | > 500 | > 500 | > 500 | > 500 | > 500 | > 500 | > 500 | > 500 | > 500 | MIC (Candida krusei E28; E28, 24 h): > 500 µM; MIC (Candida krusei E28; E28, 48 h): > 500 µM; MIC (Candida glabrata 20/I; 24 h): > 500 µM; MIC (Candida glabrata 20/I; 48 h): > 500 µM; MIC (Trichosporon asahii 1188; [18]): > 500 µM; MIC (Trichosporon asahii 1188; [19]): > 500 µM; MIC [12, 20]: > 500 µM; MIC [12, 21]: > 500 µM; MIC [13, 22]: > 500 µM; MIC [13, 23]: > 500 µM; MIC [14, 24]: 500 µM (≈ 108 µg/mL); MIC [14, 25]: 500 µM (≈ 108 µg/mL); melting point: 209.9 to 211.5 °C
